Legend:
rice = test: Test C flood test plant response rating 0 to 100; type: in vivo, Oryza sativa
In short: (§1)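 Compounds in non-phytotoxic solvent applied preemergence to sandy loam one day after planting, postemergence at the 1–4 leaf stage, or to ~2.5 cm floodwater over silt loam.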

morningglory = test: Test C preemergence/postemergence greenhouse plant response rating 0 to 100; type: in vivo, Ipomoea hederacea; details: for Plant response rating, Morningglory: 62 g/ha, 0 to 100 scale
In short: as §1

blackgrass = test: Test B preemergence/postemergence greenhouse plant response rating 0 to 10; type: in vivo, Alopecurus myosuroides; details: 0 to 10 scale
In short: (§2)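 Both application timings were run together: seeds got compound preemergence, and established seedlings (two to eighteen cm) got it postemergence. Non-phytotoxic solvent carried the chemical. Ratings are visual, versus controls, at twelve to sixteen days.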

purple nutsedge = test: as above; type: in vivo, Cyperus rotundus; details: 0 to 10 scale
In short: as §2

rape = test: as above; type: in vivo, Brassica napus; details: 0 to 10 scale
In short: as §2

corn = test: Test C preemergence/postemergence greenhouse plant response rating 0 to 100; type: in vivo, Zea mays; details: for Plant response rating, Corn: 62 g/ha, 0 to 100 scale
In short: as §1

giant foxtail = test: Test B preemergence/postemergence greenhouse plant response rating 0 to 10; type: in vivo, Setaria faberii; details: 0 to 10 scale
In short: as §2

wheat = test: Test C preemergence/postemergence greenhouse plant response rating 0 to 100; type: in vivo, Triticum aestivum
In short: as §1

wild buckwheat = test: as above; type: in vivo, Polygonum convolvulus
In short: as §1

crabgrass = test: Test B preemergence/postemergence greenhouse plant response rating 0 to 10; type: in vivo, Digitaria spp.; details: 0 to 10 scale
In short: as §2

barnyardgrass = test: as above; type: in vivo, Echinochloa crus-galli; details: 0 to 10 scale
In short: as §2

wild oat = test: Test C preemergence/postemergence greenhouse plant response rating 0 to 100; type: in vivo, Avena fatua
In short: as §1

[1] = POSTEMERGENCE, 62 g/ha, 0 to 100 scale

`CCN1C(=O)COc2cc(F)c(-c3nn4c(c3Cl)CCCC4)cc21` [Compound 54] was tested, and the “Plant response rating (0 to 100), Rice Japonica” value (rice; POSTEMERGENCE section, flood test, Rate 1 g/ha) was 0, the “Plant response rating (0 to 100), Rice Japonica” value (rice; POSTEMERGENCE section, flood test, Rate 4 g/ha) was 0 and the “Plant response rating (0 to 100), Rice Japonica” value (rice; Rate 16 g/ha, under POSTEMERGENCE head (flood test species)) was 55. For the same compound, the “Plant response rating Rice Japonica” value (rice; flood test species listed under POSTEMERGENCE, 62 g/ha, 0 to 100 scale) was 85, the “Plant response rating, Morningglory” value (morningglory; POSTEMERGENCE) was 100 and the “Plant response rating (0 to 100), Morningglory” value (morningglory; POSTEMERGENCE, Rate 1 g/ha) was 60. The “Plant response rating (0 to 100), Morningglory” value (morningglory; POSTEMERGENCE, Rate 4 g/ha) was 100, the “Plant response rating, Morningglory” value (morningglory; PREEMERGENCE) was 20 and the “Plant response rating (0 to 100), Morningglory” value (morningglory; PREEMERGENCE, Rate 1 g/ha) was 0. The “Plant response rating (0 to 100), Morningglory” value (morningglory; PREEMERGENCE, Rate 4 g/ha) was 0, the “Plant response rating (0 to 100), Morningglory” value (morningglory; Rate 16 g/ha, POSTEMERGENCE) was 100 and the “Plant response rating (0 to 100), Morningglory” value (morningglory; Rate 16 g/ha, PREEMERGENCE) was 0. For the same compound, the “Plant response rating, Blackgrass” value (blackgrass; POSTEMERGENCE, Rate 10 g/ha) was 5, the “Plant response rating, Blackgrass” value (blackgrass; POSTEMERGENCE, Rate 50 g/ha) was 6 and the “Plant response rating, Blackgrass” value (blackgrass; PREEMERGENCE, Rate 10 g/ha) was 3. For the same compound, the “Plant response rating, Blackgrass” value (blackgrass; PREEMERGENCE, Rate 50 g/ha) was 3, the “Plant response rating, Nutsedge” value (purple nutsedge; POSTEMERGENCE, Rate 10 g/ha) was 2 and the “Plant response rating, Nutsedge” value (purple nutsedge; POSTEMERGENCE, Rate 50 g/ha) was 2. For the same compound, the “Plant response rating, Nutsedge” value (purple nutsedge; PREEMERGENCE, Rate 50 g/ha) was 0, the “Plant response rating, Rape” value (rape; POSTEMERGENCE, Rate 10 g/ha) was 10 and the “Plant response rating, Rape” value (rape; POSTEMERGENCE, Rate 50 g/ha) was 10. The “Plant response rating, Rape” value (rape; PREEMERGENCE, Rate 50 g/ha) was 6, the “Plant response rating, Corn” value (corn; POSTEMERGENCE) was 50 and the “Plant response rating (0 to 100), Corn” value (corn; POSTEMERGENCE, Rate 1 g/ha) was 30. For the same compound, the “Plant response rating (0 to 100), Corn” value (corn; POSTEMERGENCE, Rate 4 g/ha) was 30, the “Plant response rating, Corn” value (corn; PREEMERGENCE) was 40 and the “Plant response rating (0 to 100), Corn” value (corn; PREEMERGENCE, Rate 1 g/ha) was 0. For the same compound, the “Plant response rating (0 to 100), Corn” value (corn; PREEMERGENCE, Rate 4 g/ha) was 0, the “Plant response rating (0 to 100), Corn” value (corn; Rate 16 g/ha, POSTEMERGENCE) was 40 and the “Plant response rating (0 to 100), Corn” value (corn; Rate 16 g/ha, PREEMERGENCE) was 0. The “Plant response rating, Giant foxtail” value (giant foxtail; POSTEMERGENCE, Rate 10 g/ha) was 4, the “Plant response rating, Giant foxtail” value (giant foxtail; POSTEMERGENCE, Rate 50 g/ha) was 4 and the “Plant response rating, Giant foxtail” value (giant foxtail; PREEMERGENCE, Rate 10 g/ha) was 0. For the same compound, the “Plant response rating, Giant foxtail” value (giant foxtail; PREEMERGENCE, Rate 50 g/ha) was 8, the “Plant response rating, Wheat” value (wheat; [1]) was 60 and the “Plant response rating (0 to 100), Wheat” value (wheat; POSTEMERGENCE, Rate 1 g/ha) was 20. The “Plant response rating (0 to 100), Wheat” value (wheat; POSTEMERGENCE, Rate 4 g/ha) was 40, the “Plant response rating (0 to 100), Wheat” value (wheat; PREEMERGENCE, Rate 1 g/ha) was 0 and the “Plant response rating (0 to 100), Wheat” value (wheat; PREEMERGENCE, Rate 4 g/ha) was 0. For the same compound, the “Plant response rating (0 to 100), Wheat” value (wheat; Rate 16 g/ha, POSTEMERGENCE) was 60, the “Plant response rating (0 to 100), Wheat” value (wheat; Rate 16 g/ha, PREEMERGENCE) was 10 and the “Plant response rating, Wild buckwheat” value (wild buckwheat; [1]) was 100. The “Plant response rating (0 to 100), Wild buckwheat” value (wild buckwheat; POSTEMERGENCE, Rate 1 g/ha) was 100, the “Plant response rating (0 to 100), Wild buckwheat” value (wild buckwheat; POSTEMERGENCE, Rate 4 g/ha) was 100 and the “Plant response rating (0 to 100), Wild buckwheat” value (wild buckwheat; PREEMERGENCE, Rate 1 g/ha) was 0. For the same compound, the “Plant response rating (0 to 100), Wild buckwheat” value (wild buckwheat; PREEMERGENCE, Rate 4 g/ha) was 0, the “Plant response rating (0 to 100), Wild buckwheat” value (wild buckwheat; Rate 16 g/ha, POSTEMERGENCE) was 100 and the “Plant response rating (0 to 100), Wild buckwheat” value (wild buckwheat; Rate 16 g/ha, PREEMERGENCE) was 100. The “Plant response rating, Crabgrass” value (crabgrass; POSTEMERGENCE, Rate 10 g/ha) was 2, the “Plant response rating, Crabgrass” value (crabgrass; POSTEMERGENCE, Rate 50 g/ha) was 3 and the “Plant response rating, Crabgrass” value (crabgrass; PREEMERGENCE, Rate 10 g/ha) was 0. For the same compound, the “Plant response rating, Crabgrass” value (crabgrass; PREEMERGENCE, Rate 50 g/ha) was 0, the “Plant response rating, Barnyardgrass” value (barnyardgrass; POSTEMERGENCE, Rate 10 g/ha) was 3 and the “Plant response rating, Barnyardgrass” value (barnyardgrass; POSTEMERGENCE, Rate 50 g/ha) was 5. The “Plant response rating, Barnyardgrass” value (barnyardgrass; PREEMERGENCE, Rate 10 g/ha) was 0, the “Plant response rating, Barnyardgrass” value (barnyardgrass; PREEMERGENCE, Rate 50 g/ha) was 3 and the “Plant response rating, Wild oat” value (wild oat; [1]) was 60. The “Plant response rating (0 to 100), Wild oat” value (wild oat; POSTEMERGENCE, Rate 1 g/ha) was 20, the “Plant response rating (0 to 100), Wild oat” value (wild oat; POSTEMERGENCE, Rate 4 g/ha) was 30 and the “Plant response rating (0 to 100), Wild oat” value (wild oat; PREEMERGENCE, Rate 1 g/ha) was 0. For the same compound, the “Plant response rating (0 to 100), Wild oat” value (wild oat; PREEMERGENCE, Rate 4 g/ha) was 0, the “Plant response rating (0 to 100), Wild oat” value (wild oat; Rate 16 g/ha, POSTEMERGENCE) was 40 and the “Plant response rating (0 to 100), Wild oat” value (wild oat; Rate 16 g/ha, PREEMERGENCE) was 10.

From US6358885B1, “Substituted phenylheterocyclic herbicides” (Mississippi State University, priority 1992, dated 2002)
